{"source": "patent US9943499B2", "about": "“Lipase inhibitors for the treatment of pancreatitis and organ failure” (priority 2011, dated 2018)", "key": {"acinar cells": {"system": "acinar cells", "format": "cell-based", "details": "for prevention of linoleic acid induced LDH leakage: 300 μM LA, 30 μM BAPTA or 1 mM EGTA, 90 minutes and 3 hours", "source_text": "Harvesting cells: Primary acinar cells from wild type mice (C57B6) were harvested and used as described previously. Viability, confirmed by trypan blue exclusion, was >95%. […] These were used in the individual experiments. Data presented is representative of 3 or more experiments.\nAcinar culture: Acinar culture was done as described previously to study inflammatory mediator upregulation.\nCalcium imaging: Acinar cells loaded with fura-2AM as described previously on 35-mm glass bottom culture dishes (MatTek corporation, Ashland, Mass.) were imaged on temperature-controlled motorized stage of an Olympus IX81 inverted microscope (Olympus America Inc, Melville, N.Y.) with a 20×0.70 NA objective and a QImaging Retiga EXi CCD camera (QImaging, Burnaby, Canada). Baseline images were taken, and cells with extremely bright or dim fluorescence were omitted. Fatty acids (linolenic, linoleic, oleic, stearic, and palmitic, 100-1200 μM final concentration) were added, and cytosolic calcium levels [Cai] were determined by alternate excitation at 340 nm and 380 nm, measuring emission at 510 nm. […] Image acquisition was with the MetaMorph 7.5 Imaging System (Molecular Devices, Downington, Pa.) using the MetaMorph 6.3 software. The 340/380 emission ratio were averaged for 7-25 acini per field, with background subtraction. Data presented is a mean from separate experiments.\nVisceral fat triglyceride composition: The visceral fat triglyceride composition analysis was done at Kennedy Krieger Institute (Baltimore, Md.). Briefly, total lipids were extracted by the method of Folch. The total lipids were weighed and then separated into 4 fractions by column chromatography on silicic acid. The second fraction has the mono-, di- and triglycerides, the non-esterified fatty acids, and ceramides; 400 micrograms of the second fraction was taken and purified, and non-esterified acids, triglycerides, and diglycerides were collected by thin-layer chromatography on Silica Gel G plates. The fatty acids were derivatized and analyzed by GCMS as their pentafluorbenzylbromide esters. ATP levels, cytochrome C release, and % LDH leakage were measured as previously described. Apoptosis was measured by active caspase-3 [western blotting, activity assays (Enzcheck, Invitrogen, Carlsbad, Calif.)], TUNEL assays, and Hoechst dye nuclear incorporation (8 mg/ml Hoechst 33342 added for 15 minutes after treatment). […] Results were reported as % of cells with given nuclear changes. These were counter stained with PI (1 μM) to stain necrotic cells (FIG. 7A, B, C) and imaged with a Zeiss Meta dual fluorescence confocal microscope. PI-positive cells were counted as late apoptosis or necrosis. […] Autophagy was studied by western blotting for LC3-I and II. RNA was extracted using Trizol (Invitrogen, Carlsbad, Calif.). mRNA levels of TNF-α, CXCL1, and CXCL2 were measured as described previously using real time-PCR performed on an ABI Prism 7000 Sequence Detection System (Applied Biosystems, Foster City, Calif.) on proprietary Taqman Gene Expression assay reagents (Applied Biosystems). Mitochondrial complex assays and citrate synthase assay were done as described previously."}, "Male Wistar rats": {"system": "Male Wistar rats", "experiment": "Intraductal infusion of glyceryl trilinoleate (GTL) pancreatitis", "format": "in vivo", "details": "for mortality: intraductal GTL alone, GTL+orlistat 75 mg/ml, GTL+cetilistat 25 mg/ml, followed to day 5; for gross pancreatic appearance: hemorrhages and necrosis: intraductal GTL with or without lipase inhibitor", "description": "Experiments were performed using a model, the technique of which is established and well described in rats (1, 2, 4, 7). This involves infusion of agents into the pancreatic duct to cause acute pancreatitis (1, 2, 4, 7). We will refer to this technique as “intraductal infusion”. We compared the severity of pancreatic damage and survival of rats after intraductal infusion of Glyceryl trilinoleate with and without the lipase inhibitor orlistat. In addition, we used a different lipase inhibitor-cetilistat (3, 6), and studied its efficacy in improving survival of rats in intraductal infusion pancreatitis induced with Glyceryl trilinoleate (GTL).\nMale Wistar rats (250-350 gm), were anesthetized. Intraductal infusion of 0.1 ml (n=5) or 0.2 ml (n=5) of GTL (Sigma-Aldrich corporation) alone or GTL+orlistat (Caymen chemical, Ann Arbor, Mich.) (75 mg/ml, 0.1 ml n=5 or 0.2 ml n=5) or GTL+cetilistat (Jinan Wedo Industrial Co., Ltd., Jinan City, Shandong China) (25 mg/ml, 0.2 ml, n=10) was done as described previously (1, 2, 4, 7). All animals were given pain control (buprenorphine 200 mcg/kg BID), Cefazolin (100 mg/kg), and 10 cc saline subcutaneously BID as per the IACUC protocol. These were followed for survival."}, "[1]": {"details": "in combination with GTL, at necropsy"}}, "note": "Entries after “also recorded” stand apart in the source; their conditions may differ. Read-outs that look alike come from different tables or passages of the source."}
{"smiles": "O=C(O)CN(CC(=O)O)c1ccccc1OCCOc1ccccc1N(CC(=O)O)CC(=O)O", "note": "[BAPTA]", "values": [{"measurement": "prevention of linoleic acid induced LDH leakage", "setting": "acinar cells", "result": "partially prevented"}]}
{"smiles": "O=C(O)CN(CCOCCOCCN(CC(=O)O)CC(=O)O)CC(=O)O", "note": "[EGTA]", "values": [{"measurement": "prevention of linoleic acid induced LDH leakage", "setting": "acinar cells", "result": "ineffective"}, {"measurement": "LDH leakage", "setting": "acinar cells; 300 μM linoleic acid, EGTA 1 mM, 90 minute", "result": "21.2±8.3", "unit": "%"}, {"measurement": "LDH leakage", "setting": "acinar cells; 300 μM linoleic acid, EGTA 1 mM, 3 hour", "result": "54.6±6.4", "unit": "%"}]}
{"smiles": "CCCCC/C=C\\C/C=C\\CCCCCCCC(=O)OCC(COC(=O)CCCCCCC/C=C\\C/C=C\\CCCCC)OC(=O)CCCCCCC/C=C\\C/C=C\\CCCCC", "note": "[GTL, glyceryl trilinoleate]", "values": [{"measurement": "mortality", "setting": "Male Wistar rats; dead/total", "result": "10/10"}, {"measurement": "first day mortality", "setting": "Male Wistar rats; dead/total, intraductal GTL without further treatment", "result": "10/10"}, {"measurement": "gross pancreatic appearance: hemorrhages and necrosis", "setting": "Male Wistar rats", "result": "caused severe hemorrhages, and near total necrosis of the gland within 24 hours"}]}
{"smiles": "CCCCCCCCCCCCCCCCOc1nc2ccc(C)cc2c(=O)o1", "note": "[cetilistat]", "values": [{"measurement": "mortality", "setting": "Male Wistar rats; dead/total", "result": "2/10"}, {"measurement": "lung injury (TUNEL positive nuclei)", "setting": "Male Wistar rats; [1]", "result": "nearly completely prevented"}, {"measurement": "renal injury (TUNEL positive nuclei)", "setting": "Male Wistar rats; [1]", "result": "nearly completely prevented; also recorded: absence of staining TUNEL positive nuclei"}, {"measurement": "lung injury (TUNEL positive nuclei)", "setting": "Male Wistar rats; in combination with GTL, at necropsy, listed as Cetilistat", "result": "absence of TUNEL positive nuclei"}, {"measurement": "gross pancreatic appearance: hemorrhages and necrosis", "setting": "Male Wistar rats", "result": "prevented the hemorrhages and necrosis up to 5 days"}]}
{"smiles": "CCCCC/C=C\\C/C=C\\CCCCCCCC(=O)O", "note": "[linoleic acid]", "values": [{"measurement": "acinar mRNA levels of TNF-α, CXCL1 and CXCL2", "setting": "acinar cells; 200 μM fatty acid (sub-lethal)", "result": "increased"}, {"measurement": "autophagy (LC3-II) and apoptosis (active caspase3)", "setting": "acinar cells; 300 μM linoleic acid", "result": "not activated"}]}
{"smiles": "C/C=C(/C)C(=O)O[C@H]1C(C)=C2[C@H]([C@@H]1OC(=O)CCCCCCC)[C@@](C)(OC(C)=O)C[C@H](OC(=O)CCC)[C@@]1(O)[C@H]2OC(=O)[C@@]1(C)O", "note": "[thapsigargin]", "values": [{"measurement": "600 μM LA induced intra-acinar calcium (Cai) increase", "setting": "acinar cells; 1 μM thapsigargin, EGTA 1 mM", "result": "prevents"}]}
